Here are results for three molecules from US11400093B2, “Deuterated elagolix-like compositions and methods” (Lupin Inc., priority 2019, dated 2022).

Common to all, as to assay type: in vitro ADME
Data set [1] deals with cDNA-expressed CYP1A2, CYP2A6, CYP2B6, CYP2C8, CYP2C9, CYP2C19, CYP2D6, CYP2E1, CYP3A4, and CYP3A5. The data set can be described thus: Metabolism by cDNA-expressed human CYP enzymes, all isoforms (parent remaining). Particulars: for average percent of parent compound remaining for all isoforms and concentrations: 1.0 μM and 10 μM, 120 minutes incubation, all ten CYP isoforms. Here is the method:
(§1) A study was conducted to determine the effect of deuteration on the metabolism of elagolix by human cytochrome P450 (CYP) enzymes. The metabolism of 4-[[(1R)-2-[5-(2-fluoro-3-methoxyphenyl)-3-[[2-fluoro-6(trifluoromethyl)phenyl]methyl]-3,6-dihydro-4-methyl-2,6-dioxo-1(2H)-pyrimidinyl]-1-phenylethyl]amino] butanoic acid-d3 (elagolix-d3) sodium salt and 4-[[(1R)-2-[5-(2-fluoro-3-methoxyphenyl)-3-[[2-fluoro-6(trifluoromethyl)phenyl] methyl]-3,6-dihydro-4-methyl-2,6-dioxo-1(2H)-pyrimidinyl]-1-phenylethyl]amino] butanoic acid-d6 (elagolix-d6) sodium salt by cDNA-expressed CYP enzymes were investigated in vitro and compared to results obtained with undeuterated elagolix to determine which human cytochrome P450 (CYP) enzymes are involved in the metabolism of elagolix, elagolix-d3, and elagolix-d6.
Commercially available cDNA-expressed human CYP enzymes were used for this study.
A 600 μL reaction mixture containing enzyme protein, NADPH generating system (1.3 mM NADP+, 3.3 mM glucose-6-phosphate, 0.4 U/mL glucose-6-phosphate dehydrogenase, 3.3 mM magnesium chloride) and each test article (elagolix, elagolix-d3, elagolix-d6) at two concentrations (e.g. 1 μM and 10 μM) in 100 mM potassium phosphate (pH 7.4) was incubated at 37° C. At two time points (0 and 120 min), the reaction was stopped by removing an aliquot and combining it with an equal volume of cold acetonitrile containing an internal standard (deuterated elagolix was used as the internal standard for elagolix, and elagolix was used as the internal standard for elagolix-d3 and -d6) and placed on ice. Samples were centrifuged to pellet the protein and the supernatant was frozen at −20° C. for subsequent analysis by LC-MS/MS.
Protein concentrations were constant for all isoforms within each experiment and standardized by the addition of control microsomes. Incubations were performed in duplicate. Incubations with vector control enzyme preparations and without enzyme source were included as negative controls.
All other positive controls were assayed at one concentration in duplicate in accordance with the methods described above. The percent of parent remaining at the end of the incubation was compared to 0 min based on the peak area ratio of the substrate and internal standard.
LC-MS/MS methods for elagolix, elagolix-d3, and elagolix-d6 were developed. The fraction of parent compound remaining compared to 0 min was determined based on peak area ratio (analyte/internal standard).
Elagolix, elagolix-d3, and elagolix-d6 at 1.0 μM and 10 μM were each incubated in the presence of cDNA-expressed CYP1A2, CYP2A6, CYP2B6, CYP2C8, CYP2C9, CYP2C19, CYP2D6, CYP2E1, CYP3A4, and CYP3A5 for 120 minutes. The average percent of parent compound remaining for all isoforms and concentrations was >11% for elagolix, >60% for elagolix-d3, and >26% for elagolix-d6.

The target in a further data set is T1, cDNA-expressed CYP2D6 (Homo sapiens, UniProt P10635).
T1 construct: purchased
T1 sequence (P10635 whole entry): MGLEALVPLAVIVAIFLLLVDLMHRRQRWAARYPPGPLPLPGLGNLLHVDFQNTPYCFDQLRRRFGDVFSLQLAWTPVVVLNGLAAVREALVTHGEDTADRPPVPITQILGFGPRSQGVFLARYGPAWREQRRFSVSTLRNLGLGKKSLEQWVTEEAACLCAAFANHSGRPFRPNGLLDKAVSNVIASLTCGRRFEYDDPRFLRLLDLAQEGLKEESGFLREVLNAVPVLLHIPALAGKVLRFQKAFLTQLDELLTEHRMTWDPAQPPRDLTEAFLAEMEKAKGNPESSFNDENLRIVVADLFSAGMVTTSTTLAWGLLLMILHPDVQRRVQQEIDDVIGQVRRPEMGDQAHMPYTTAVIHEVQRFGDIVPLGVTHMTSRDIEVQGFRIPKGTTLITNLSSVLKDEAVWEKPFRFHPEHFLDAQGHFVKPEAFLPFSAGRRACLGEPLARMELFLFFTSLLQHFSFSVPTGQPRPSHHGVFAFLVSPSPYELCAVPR
The data set can be described thus: Metabolism by cDNA-expressed CYP2D6 (parent remaining). The following applies: 1 μM, 120 min. The procedure: as §1
(§2) Commercially available cDNA-expressed human CYP enzymes were used for this study. […]
(§3) LC-MS/MS methods for elagolix, elagolix-d3, and elagolix-d6 were developed. The fraction of parent compound remaining compared to 0 min was determined based on peak area ratio (analyte/internal standard). […]

For a further data set, the target named is T2, cDNA-expressed CYP3A5 (Homo sapiens, UniProt P20815).
T2 construct: purchased
T2 sequence (P20815 whole entry): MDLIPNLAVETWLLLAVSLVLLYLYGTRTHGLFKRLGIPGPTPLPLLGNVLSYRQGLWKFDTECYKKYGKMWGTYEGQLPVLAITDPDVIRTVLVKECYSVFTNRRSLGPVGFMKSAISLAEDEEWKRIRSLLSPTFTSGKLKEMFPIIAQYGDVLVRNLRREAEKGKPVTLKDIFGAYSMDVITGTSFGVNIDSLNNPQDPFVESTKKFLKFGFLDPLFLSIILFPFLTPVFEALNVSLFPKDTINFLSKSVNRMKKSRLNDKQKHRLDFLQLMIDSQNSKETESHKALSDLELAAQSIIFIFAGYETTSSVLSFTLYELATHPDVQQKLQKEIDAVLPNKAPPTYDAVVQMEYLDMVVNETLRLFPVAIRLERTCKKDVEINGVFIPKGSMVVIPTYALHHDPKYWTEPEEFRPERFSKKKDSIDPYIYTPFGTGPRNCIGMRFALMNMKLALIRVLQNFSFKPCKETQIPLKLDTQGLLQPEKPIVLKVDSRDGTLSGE
The data set is described as follows: Metabolism by cDNA-expressed CYP3A5 (parent remaining). Particulars: 1 μM, 120 min. The procedure: as §1, §2, §3

For `COc1cccc(-c2c(C)n(Cc3c(F)cccc3C(F)(F)F)c(=O)n(C[C@H](NCCCC(=O)O)c3ccccc3)c2=O)c1F` [elagolix, 4-({(1R)-2-[5-(2-fluoro-3methoxyphenyl)-3-{[2-fluoro-6-(trifluoromethyl)phenyl]methyl}-4-methyl-2,6-dioxo-3,6dihydropyrimidin-1(2H)-yl]-1-phenylethyl}amino)butanoate], the “average percent of parent compound remaining for all isoforms and concentrations” value in data set [1] is reported as greater than 11%. Also, the “percent parent remaining, cDNA-expressed CYP2D6” value at cDNA-expressed CYP2D6 is 62%. On cDNA-expressed CYP3A5, the “percent parent remaining, cDNA-expressed CYP3A5” value is recorded as 11%.
On to `[2H]C([2H])([2H])Oc1cccc(-c2c(C)n(Cc3c(F)cccc3C(F)(F)F)c(=O)n(C[C@H](NCCCC(=O)O)c3ccccc3)c2=O)c1F` [elagolix-d3, 4-[[(1R)-2-[5-(2-fluoro-3-methoxyphenyl)-3-[[2-fluoro-6(trifluoromethyl)phenyl]methyl]-3,6-dihydro-4-methyl-2,6-dioxo-1(2H)-pyrimidinyl]-1-phenylethyl]amino] butanoic acid-d3], for which, in data set [1], the “average percent of parent compound remaining for all isoforms and concentrations” value is greater than 60%; the “average amount of parent compound in a CYP enzyme assay after 120 minutes relative to that of elagolix” value is “more than 400%”. For the same molecule, on cDNA-expressed CYP2D6, the “depletion by cDNA-expressed CYP2D6” value is listed as “did not demonstrate any depletion”. For the same molecule, the “percent parent remaining, cDNA-expressed CYP3A5” value at cDNA-expressed CYP3A5 is reported as 60%.
With `[2H]C([2H])(N[C@@H](Cn1c(=O)c(-c2cccc(OC)c2F)c(C)n(Cc2c(F)cccc2C(F)(F)F)c1=O)c1ccccc1)C([2H])([2H])C([2H])([2H])C(=O)O` [elagolix-d6, 4-[[(1R)-2-[5-(2-fluoro-3-methoxyphenyl)-3-[[2-fluoro-6(trifluoromethyl)phenyl]methyl]-3,6-dihydro-4-methyl-2,6-dioxo-1(2H)-pyrimidinyl]-1-phenylethyl]amino] butanoic acid-d6], in data set [1], the “average percent of parent compound remaining for all isoforms and concentrations” value is reported as greater than 26%; the “average amount of parent compound in a CYP enzyme assay after 120 minutes relative to that of elagolix” value is on record as 136%.
